# Like-named read-outs stand apart in the source and are kept apart here.
# Experiments:
# [1] = tested on: panel of multidrug-resistant strains of Staphylococcus aureus; details: inventors' 2006 poster; cited from earlier work
# M. smegmatis ATCC14468 = assay: MIC assay (MHB microtitre, MTT); type: cell-based; details: Mycolicibacterium smegmatis
# P. aeruginosa K1119 = assay: MIC assay (MHB microtitre, MTT); type: cell-based; details: Pseudomonas aeruginosa
# [2] = tested on: Enterococcus faecalis ATCC29212; assay: MIC on IsoSensitest agar / broth, standard laboratory strain; type: cell-based; details: in broth and agar, read-out: minimum inhibitory concentration
# Protocol: (§1) Compound 7 was tested using bacteria which were recent clinical isolates, or were standard reference controls. The clinical isolates were selected to represent important resistant phenotypes currently prevalent in the UK and worldwide. They included (i) methicillin-resistant Staphylococcus aureus (MRSA), specifically the epidemic (E)MRSA-15 and 16 strains dominant in the UK; (ii) methicillin-resistant coagulase negative staphylococci (i.e. S. epidermidis, S. haemolyticus); (iii) vancomycin-resistant as well as susceptible Enterococcus faecalis and E. faecium; (iv) penicillin-resistant and—susceptible Streptococcus pneumoniae; (v) group A streptococci (=S. pyogenes, which remain universally susceptible to penicillin) and (vi) Clostridium difficile.
# (§2) MICs were determined on IsoSensitest agar (ISA) (method of British Society for Antimicrobial Chemotherapy, http://www.bsac.org.uk) or by microdilution in IsoSensitest Broth (ISB). Both media were from Oxoid, Basingstoke, Hants. Plates were variously incubated, at 35-37° C., in air, air enriched with 5% CO2 or under anaerobic conditions.
# Streptococcus pneumoniae = assay: as above; type: cell-based; details: ATCC29212; in broth and agar; Streptococcus pneumoniae ATCC 29212; read-out: minimum inhibitory concentration
# Protocol: as §1, §2
# [3] = tested on: NCTC6571 Staphylococcus aureus; assay: as above; type: cell-based; details: in broth and agar, read-out: minimum inhibitory concentration
# Protocol: as §1, §2
# S. aureus EMRSA16 = assay: MIC assay (MHB microtitre, MTT); type: cell-based; details: Staphylococcus aureus
# S. aureus EMRSA15 = assay: MIC assay (MHB microtitre, MTT); type: cell-based; details: Staphylococcus aureus
# M. phlei ATCC11758 = assay: MIC assay (MHB microtitre, MTT); type: cell-based; details: Mycolicibacterium phlei
# [4] = tested on: penicillin-resistant and penicillin-sensitive Streptococcus pneumoniae; assay: MIC on IsoSensitest agar / broth, clinical isolates; type: cell-based; details: in broth and agar, penicillin-resistant and -sensitive S. pneumoniae, read-out: minimum inhibitory concentration
# Protocol: as §1, §2
# [5] = tested on: methicillin-sensitive coagulase-negative Staphylococcus epidermidis; assay: as above; type: cell-based; details: in broth and agar, methicillin-sensitive S. epidermidis, read-out: minimum inhibitory concentration
# Protocol: as §1, §2
# [6] = tested on: vancomycin-resistant and vancomycin-sensitive Enterococcus faecalis; assay: as above; type: cell-based; details: in broth and agar, vancomycin-resistant and -sensitive E. faecalis, read-out: minimum inhibitory concentration
# Protocol: as §1, §2
# [7] = tested on: methicillin-sensitive coagulase-negative Staphylococcus haemolyticus; assay: as above; type: cell-based; details: in broth and agar, methicillin-sensitive S. haemolyticus, read-out: minimum inhibitory concentration
# Protocol: as §1, §2
# [8] = tested on: methicillin-sensitive Staphylococcus aureus; assay: as above; type: cell-based; details: in broth and agar, methicillin-sensitive S. aureus, read-out: minimum inhibitory concentration
# Protocol: as §1, §2
# [9] = tested on: epidemic methicillin-resistant Staphylococcus aureus 15 and 16; assay: as above; type: cell-based; details: in broth and agar, EMRSA-15 and 16 clinical isolates, read-out: minimum inhibitory concentration
# Protocol: as §1, §2
# [10] = tested on: vancomycin-resistant and vancomycin-sensitive Enterococcus faecium; assay: as above; type: cell-based; details: in broth and agar, vancomycin-resistant and -sensitive E. faecium, read-out: minimum inhibitory concentration
# Protocol: as §1, §2
# [11] = tested on: methicillin-resistant coagulase-negative Staphylococcus epidermidis; assay: as above; type: cell-based; details: in broth and agar, methicillin-resistant S. epidermidis, read-out: minimum inhibitory concentration
# Protocol: as §1, §2
# P. aeruginosa K767 = assay: MIC assay (MHB microtitre, MTT); type: cell-based; details: Pseudomonas aeruginosa
# S. aureus SA1199B = assay: MIC assay (MHB microtitre, MTT); type: cell-based; details: Staphylococcus aureus
# M. smegmatis MC2 2700 = assay: MIC assay (MHB microtitre, MTT); type: cell-based; details: Mycolicibacterium smegmatis, MC22700
# Group A Streptococcus = assay: MIC on IsoSensitest agar / broth, clinical isolates; type: cell-based, S. pyogenes; details: in broth and agar, read-out: minimum inhibitory concentration
# Protocol: as §1, §2
# S. aureus XU212 = assay: microbe, parasite or virus in culture; type: cell-based; details: Staphylococcus aureus
# M. fortuitum ATCC6841 = assay: MIC assay (MHB microtitre, MTT); type: cell-based; details: Mycolicibacterium fortuitum
# S. aureus ATCC25923 = assay: MIC assay (MHB microtitre, MTT); type: cell-based; details: Staphylococcus aureus
# S. aureus RN4220 = assay: MIC assay (MHB microtitre, MTT); type: cell-based; details: Staphylococcus aureus
# Protocol: Bacteria were cultured on nutrient agar (Oxoid) and incubated for 24 h at 37 ° C. prior to MIC determination. […] An inoculum density of 5×10^5 cfu of S. aureus was prepared in normal saline (9 g/l) by comparison with a 0.5 MacFarland turbidity standard. The inoculum (125 μl) was added to all wells and the microtitre plate was incubated at 37° C. for 18 h. For MIC determination, 20 μl of a 5 mg/ml methanolic solution of 3-[4,5-dimethylthiazol-2-yl]-2,5-diphenyltetrazolium bromide (MTT; Sigma) was added to each of the wells and incubated for 20 min. Bacterial growth was indicated by a colour change from yellow to dark blue. The MIC was recorded as the lowest concentration at which no growth was observed.
# S. typhimurium L354 = assay: MIC assay (MHB microtitre, MTT); type: cell-based; details: Salmonella enterica
# S. typhimurium L10 = assay: MIC assay (MHB microtitre, MTT); type: cell-based; details: Salmonella enterica
# [12] = has to be stabilised as a salt; cited from earlier work
# [13] = tested on: MRSA and penicillin-resistant Staphylococcus aureus; details: cited from earlier work
smiles,measurement,setting,value
"O=c1c2cc(O)ccc2oc2cccc(O)c12 [1,7-dihydroxyxanthone]",minimum inhibitory concentration,[1],128 to 256 µg/mL
CCC(C)C(=O)c1c(O)cc(O)cc1OC/C=C(\C)CCC=C(C)C (centres unmarked) [Compound 7],MIC,M. smegmatis ATCC14468,4 µg/mL
same,MIC,P. aeruginosa K1119,> 512 µg/mL
same,MIC,[2],4 µg/mL
same,MIC,Streptococcus pneumoniae,4 µg/mL
same,MIC,[3],4 µg/mL
same,MIC,S. aureus EMRSA16,1 µg/mL
same,MIC,S. aureus EMRSA15,0.5 µg/mL
same,MIC,M. phlei ATCC11758,4 µg/mL
same,MIC,[4],2 to 4 µg/mL
same,MIC,[5],2 to 4 µg/mL
same,MIC,[6],4 µg/mL
same,MIC,[7],16 µg/mL
same,MIC,[8],2 to 8 µg/mL
same,MIC,[9],2 to 4 µg/mL
same,MIC,[10],2 to 4 µg/mL
same,MIC,[11],2 to 8 µg/mL
same,MIC,P. aeruginosa K767; K767,> 512 µg/mL
same,MIC,S. aureus SA1199B,1 µg/mL
same,MIC,M. smegmatis MC2 2700,4 µg/mL
same,MIC,Group A Streptococcus,4 µg/mL
same,MIC,S. aureus XU212,1 µg/mL
same,MIC,M. fortuitum ATCC6841,8 µg/mL
same,MIC,S. aureus ATCC25923,1 µg/mL
same,MIC,S. aureus RN4220,1 µg/mL
same,MIC,S. typhimurium L354,> 512 µg/mL
same,MIC,S. typhimurium L10,> 512 µg/mL
"CC[C@H]1OC(=O)[C@H](C)[C@@H](O[C@H]2C[C@@](C)(OC)[C@@H](O)[C@H](C)O2)[C@H](C)[C@@H](O[C@@H]2O[C@H](C)C[C@H](N(C)C)[C@H]2O)[C@](C)(O)C[C@@H](C)C(=O)[C@H](C)[C@@H](O)[C@]1(C)O [Erythromycin, erythromycin, reference compound]",MIC,S. aureus RN4220,128 µg/mL
CC[C@@H](CO)NCCN[C@@H](CC)CO [Ethambutol],MIC,M. smegmatis ATCC14468,0.5 µg/mL
same,MIC,M. phlei ATCC11758,0.5 µg/mL
same,MIC,M. smegmatis MC2 2700,0.5 µg/mL
same,MIC,M. fortuitum ATCC6841,0.5 µg/mL
CC(C)=CCC[C@]1(C)[C@@H](CC=C(C)C)C[C@@]2(CC=C(C)C)C(=O)[C@]1(C(=O)C(C)C)C(=O)C(CC=C(C)C)=C2O [Hyperforin],stability,[12],unstable
same,Minimum Inhibitory Concentration (MIC),[13],0.1 to 0.5 µg/mL
NNC(=O)c1ccncc1 [Isoniazid],MIC,M. smegmatis ATCC14468,2 µg/mL
same,MIC,M. phlei ATCC11758,2 µg/mL
same,MIC,M. smegmatis MC2 2700,2 µg/mL
same,MIC,M. fortuitum ATCC6841,4 µg/mL
"CCn1cc(C(=O)O)c(=O)c2cc(F)c(N3CCNCC3)cc21 [Norfloxacin, norfloxacin, reference compound]",MIC,P. aeruginosa K1119,2 µg/mL
same,MIC,"P. aeruginosa K767; P. aeruginosa K767, read-out: MIC",2 µg/mL
same,MIC,S. aureus SA1199B,32 µg/mL
same,MIC,S. aureus ATCC25923,1 µg/mL
"Cc1onc(-c2ccccc2)c1C(=O)N[C@@H]1C(=O)N2[C@@H]1SC(C)(C)[C@@H]2C(=O)O [Oxacillin, reference compound]",MIC,S. aureus EMRSA16,512 µg/mL
same,MIC,S. aureus EMRSA15,16 µg/mL
